#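 Cells were grown in 96-well plates and exposed to each compound for 48 hours at five concentrations; endpoints were interpolated linearly between bracketing concentrations, or set to the highest concentration if not reached. GI50 = concentration required for 50% inhibition of growth. Definition used: TGI = concentration required for complete inhibition of growth.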
# What was measured:
# Test in all cases: NCI tumour cell line growth inhibition, 48 h
# [1] = tested on: DU-145 prostate
# [2] = tested on: K-562 leukemia
# [3] = tested on: T-47D breast
# [4] = tested on: SK-MEL-28 melanoma
# [5] = tested on: SR leukemia
# [6] = tested on: OVCAR-5 ovarian
# [7] = tested on: SK-OV-3 ovarian
# [8] = tested on: PC-3 prostate
# [9] = tested on: NCI/ADR-RES ovarian
# [10] = tested on: KM12 colon
# [11] = tested on: HT29 colon
# [12] = tested on: MOLT-4 leukemia
# [13] = tested on: LOX IMVI melanoma
# [14] = tested on: SK-MEL-2 melanoma
# [15] = tested on: A549 NSCLC
# [16] = tested on: SF-539 CNS
# [17] = tested on: RPMI-8226 leukemia
# [18] = tested on: OVCAR-4 ovarian
# [19] = tested on: NCI-H522 lung
# [20] = tested on: NCI-H226 lung
# [21] = tested on: UACC-62 melanoma
# [22] = tested on: BT-549 breast
# [23] = tested on: A498 renal
# [24] = tested on: U251 CNS
# [25] = tested on: OVCAR-3 ovarian
# [26] = tested on: M14 melanoma
# [27] = tested on: MALME-3M melanoma
# [28] = tested on: NCI-H23 lung
# [29] = tested on: NCI-H460 lung
# [30] = tested on: CAKI-1 renal
# [31] = tested on: SF-268 CNS
# [32] = tested on: MCF7 breast
# [33] = tested on: SNB-19 CNS
# [34] = tested on: HCT-116 colon
# [35] = tested on: HCC-2998 colon
# [36] = tested on: HS 578T breast
# [37] = tested on: MDA-MB-231 breast
# [38] = tested on: SW-620 colon
# [39] = tested on: SF-295 CNS
# [40] = tested on: MDA-MB-435
# [41] = tested on: SN12C renal
# [42] = tested on: OVCAR-8 ovarian
# [43] = tested on: COLO 205 colon
# [44] = tested on: CCRF-CEM leukemia
# [45] = tested on: HOP-92 NSCLC
# [46] = tested on: 786-0 renal
# [47] = tested on: UO-31 renal
# [48] = tested on: TK-10 renal
# [49] = tested on: SK-MEL-5 melanoma
# [50] = tested on: SNB-75 CNS
# [51] = tested on: UACC-257 melanoma
# [52] = tested on: HOP-62 NSCLC
# [53] = tested on: ACHN renal
# [54] = tested on: RXF 393 renal
# [55] = tested on: HL-60(TB) leukemia
# [56] = tested on: HCT-15 colon
# [57] = tested on: IGROV1 ovarian
# [58] = tested on: EKVX NSCLC
compound,measurement,setting,value
C=CCOc1cccc(/C=C2\SC(=Nc3ccc(O)cc3)NC2=O)c1,GI50,[1],399 nM
same,GI50,[2],243 nM
same,TGI,[2],> 100 µM
same,GI50,[3],495 nM
same,TGI,[3],> 100000 nM
same,GI50,[4],2470 nM
same,TGI,[4],31.2 µM
same,GI50,[5],108 nM
same,TGI,[5],> 63.7 µM
same,GI50,[6],2320 nM
same,TGI,[6],24.9 µM
same,GI50,[7],1660 nM
same,TGI,[7],15.7 µM
same,GI50,[8],537 nM
same,TGI,[8],> 48.4 µM
same,GI50,[9],494 nM
same,TGI,[9],17.1 µM
same,GI50,[10],433 nM
same,TGI,[10],8.86 µM
same,GI50,[11],3540 nM
same,TGI,[11],29.6 µM
same,GI50,[12],523 nM
same,TGI,[12],> 23.8 µM
same,GI50,[13],543 nM
same,TGI,[13],12.7 µM
same,GI50,[14],2910 nM
same,TGI,[14],18.5 µM
same,GI50,[15],717 nM
same,TGI,[15],14.9 µM
same,GI50,[16],296 nM
same,TGI,[16],1.14 µM
same,GI50,[17],372 nM
same,TGI,[17],3.1 µM
same,GI50,[18],2150 nM
same,TGI,[18],22.8 µM
same,GI50,[19],406 nM
same,TGI,[19],2980 nM
same,GI50,[20],1210 nM
same,TGI,[20],22.6 µM
same,GI50,[21],808 nM
same,TGI,[21],17.4 µM
same,GI50,[22],529 nM
same,TGI,[22],3.4 µM
same,GI50,[23],790 nM
same,TGI,[23],3770 nM
same,GI50,[24],495 nM
same,TGI,[24],12.9 µM
same,GI50,[25],284 nM
same,TGI,[25],3.15 µM
same,GI50,[26],384 nM
same,TGI,[26],22.9 µM
same,GI50,[27],2480 nM
same,TGI,[27],21.9 µM
same,GI50,[28],1010 nM
same,TGI,[28],31.4 µM
same,GI50,[29],389 nM
same,TGI,[29],5.2 µM
same,GI50,[30],466 nM
same,TGI,[30],6.43 µM
same,GI50,[31],1440 nM
same,TGI,[31],> 22.6 µM
same,GI50,[32],361 nM
same,TGI,[32],> 57.8 µM
same,GI50,[33],531 nM
same,TGI,[33],36.8 µM
same,GI50,[34],408 nM
same,TGI,[34],5.38 µM
same,GI50,[35],1150 nM
same,TGI,[35],9.22 µM
same,GI50,[36],414 nM
same,TGI,[36],12.4 µM
same,GI50,[37],975 nM
same,TGI,[37],6.62 µM
same,GI50,[38],383 nM
same,TGI,[38],> 80.1 µM
same,GI50,[39],505 nM
same,TGI,[39],16.6 µM
same,GI50,[40],155 nM
same,TGI,[40],315 nM
same,GI50,[41],953 nM
same,TGI,[41],10.1 µM
same,GI50,[42],813 nM
same,TGI,[42],14 µM
same,GI50,[43],2640 nM
same,TGI,[43],11.1 µM
same,GI50,[44],402 nM
same,TGI,[44],> 100 µM
same,GI50,[45],863 nM
same,TGI,[45],6.54 µM
same,GI50,[46],1130 nM
same,TGI,[46],7.89 µM
same,GI50,[47],832 nM
same,TGI,[47],2510 nM
same,GI50,[48],4570 nM
same,TGI,[48],18.8 µM
same,GI50,[49],555 nM
same,TGI,[49],2.44 µM
same,GI50,[50],189 nM
same,TGI,[50],668 nM
same,GI50,[51],9.11 µM
same,TGI,[51],> 100 µM
same,GI50,[52],660 nM
same,TGI,[52],13.1 µM
same,GI50,[53],777 nM
same,TGI,[53],13.7 µM
same,GI50,[54],302 nM
same,TGI,[54],3770 nM
same,GI50,[55],241 nM
same,TGI,[55],749 nM
same,GI50,[56],358 nM
same,TGI,[56],> 100 µM
same,GI50,[57],543 nM
same,TGI,[57],22.8 µM
same,GI50,[58],1470 nM
same,TGI,[58],> 100 µM
O=C(NCCO)Nc1ccc(-c2nc(N3CCOCC3)c3cccn3n2)cc1,GI50,[1],232 nM
same,TGI,[1],> 58.5 µM
same,GI50,[2],2800 nM
same,TGI,[2],> 100 µM
same,GI50,[3],< 21.2 nM
same,TGI,[3],125 nM
same,GI50,[4],108 nM
same,TGI,[4],4.59 µM
same,GI50,[5],232 nM
same,TGI,[5],> 100 µM
same,GI50,[6],138 nM
same,TGI,[6],20.7 µM
same,GI50,[7],60.2 nM
same,TGI,[7],0.291 µM
same,GI50,[8],103 nM
same,TGI,[8],> 100 µM
same,GI50,[9],2250 nM
same,TGI,[9],> 33.7 µM
same,GI50,[10],579 nM
same,TGI,[10],> 100 µM
same,GI50,[11],496 nM
same,TGI,[11],> 100 µM
same,GI50,[12],217 nM
same,TGI,[12],> 49.2 µM
same,GI50,[13],693 nM
same,TGI,[13],35.3 µM
same,GI50,[14],256 nM
same,TGI,[14],5.09 µM
same,GI50,[15],2070 nM
same,TGI,[15],18.3 µM
same,GI50,[16],315 nM
same,TGI,[16],5.72 µM
same,GI50,[17],405 nM
same,TGI,[17],> 54.6 µM
same,GI50,[18],89.2 nM
same,TGI,[18],3.75 µM
same,GI50,[19],83.3 nM
same,TGI,[19],> 100000 nM
same,GI50,[20],130 nM
same,TGI,[20],6.33 µM
same,GI50,[21],80.9 nM
same,TGI,[21],1.84 µM
same,GI50,[22],72.9 nM
same,TGI,[22],3.6 µM
same,GI50,[23],< 37.3 nM
same,TGI,[23],125 nM
same,GI50,[24],1010 nM
same,TGI,[24],> 95.1 µM
same,GI50,[25],170 nM
same,TGI,[25],9.82 µM
same,GI50,[26],189 nM
same,TGI,[26],> 65.5 µM
same,TGI,[27],0.0506 µM
same,GI50,[28],239 nM
same,TGI,[28],> 100 µM
same,GI50,[29],190 nM
same,TGI,[29],> 100 µM
same,GI50,[30],1160 nM
same,TGI,[30],> 100 µM
same,GI50,[31],164 nM
same,TGI,[31],> 95.9 µM
same,GI50,[32],70.3 nM
same,TGI,[32],> 100 µM
same,GI50,[33],2140 nM
same,TGI,[33],> 100 µM
same,GI50,[34],1850 nM
same,TGI,[34],> 100 µM
same,GI50,[35],488 nM
same,TGI,[35],> 100 µM
same,GI50,[36],88.9 nM
same,TGI,[36],0.836 µM
same,GI50,[37],172 nM
same,TGI,[37],14.6 µM
same,GI50,[38],1650 nM
same,TGI,[38],> 100 µM
same,GI50,[39],117 nM
same,TGI,[39],2.13 µM
same,GI50,[40],188 nM
same,TGI,[40],> 28100 nM
same,GI50,[41],567 nM
same,TGI,[41],> 100 µM
same,GI50,[42],257 nM
same,TGI,[42],21.1 µM
same,GI50,[43],117 nM
same,TGI,[43],9.08 µM
same,GI50,[44],2980 nM
same,TGI,[44],> 100 µM
same,GI50,[45],46.6 nM
same,TGI,[45],1.09 µM
same,GI50,[46],218 nM
same,TGI,[46],6.14 µM
same,GI50,[47],57.3 nM
same,TGI,[47],1630 nM
same,GI50,[48],93.5 nM
same,TGI,[48],2.64 µM
same,GI50,[49],236 nM
same,TGI,[49],3.67 µM
same,GI50,[50],44.5 nM
same,TGI,[50],1080 nM
same,GI50,[51],0.149 µM
same,TGI,[51],4.29 µM
same,GI50,[52],122 nM
same,TGI,[52],3.85 µM
same,GI50,[53],61.4 nM
same,TGI,[53],> 100 µM
same,GI50,[54],68.6 nM
same,TGI,[54],1390 nM
same,GI50,[55],2210 nM
same,TGI,[55],> 100000 nM
same,GI50,[56],359 nM
same,TGI,[56],> 100 µM
same,GI50,[57],167 nM
same,TGI,[57],1.08 µM
same,GI50,[58],183 nM
same,TGI,[58],8.47 µM

# From PubChem BioAssay (NCI)
